How the values were obtained:
[1] = system: Bone marrow of WT or LXRαβKO mice; test: Bone marrow dendritic cell differentiation (GM-CSF) from WT or LXRαβKO mice in presence of DDA; format: cell-based, mouse
Method: FIGS. 11A-B. Bone marrow was isolated from the tibia and femur of WT or LXRαβKO mice and cultivated with 20 ng/ml GM-CSF and in presence of increasing concentrations of DDA. At day 3 and 5 half of medium was replaced by fresh medium containing GM-CSF. After 7 days of culture, the percentage of (A) differentiated CD11c+CD8a dendritic cell (B) mature CD11c+CD8a+ dendritic cells (CD11c+CD8a+CD86hi CCR7hi) was measured by flow cytometry and expressed relative to the control.
FIG. 12. Bone marrow was isolated from the tibia and femur of WT or LXRαβKO mice and cultivated with 20 ng/ml GM-CSF and in presence of increasing concentrations of DDA. At day 3 and 5 half of medium was replaced by fresh medium containing GM-CSF. After 7 days of culture, the mean of florescence (MFI) of MHC class II expressed on the surface of CD11c dendritic cells: CD11c+H2db+ was measured by flow cytometry and expressed relative to the control.

[2] = system: naive CD4 T cells from the spleen of WT or LXRαβKO mice; test: Polarization of naive CD4 T cells from WT or LXRαβKO mice in presence of DDA; format: cell-based, mouse
Method: FIGS. 9A-B. Sorted naive CD4 T cells were isolated from the spleen of WT or LXRαβKO mice (collaboration with Hervé Guillou, INRA, Toulouse) and activated in the indicated Th1 or Treg polarizing conditions. These cells were cultured in the presence of increasing concentrations of DDA. After 96 hours, the percentage of (A) Th1: CD4+Tbet+IFNg+ and (B) Treg: CD4+Foxp3+IL10+ cells was measured by flow cytometry and expressed relative to the control.
FIG. 10. Sorted naive CD4 T cells were isolated from the spleen of WT or LXRαβKO mice and activated in Th2 polarizing conditions. These cells were cultured in the presence of increasing concentrations of DDA. After 96 hours, the percentage of Th2: CD4+GATA3+IL4+ cells was measured by flow cytometry and expressed relative to the control.

[3] = WT, 7 days of culture (FIG. 11)

CC(C)CCCC(C)[C@H]1CCC2C3C[C@@H](NCCc4cnc[nH]4)[C@@]4(O)C[C@@H](O)CC[C@]4(C)C3CC[C@@]21C (stereo partly shown) [DDA, 5a-hydroxy-6b-[2-(1H-imidazol-4-yl)ethylamino]cholestan-3b-ol]
MHC II expression at the surface of CD11c dendritic cells ([1]; 1 μM DDA, WT (FIG. 12)): increases | differentiation of CD11c into CD11c CD8a+ dendritic cells [1, 3]: increases | maturation of CD11c CD8a+ dendritic cells (CD86hi CCR7hi) [1, 3]: increases | effect on MHC II expression at the surface of CD11c dendritic cells ([1]; in absence of LXR (LXRαβKO)): abrogated | effect on differentiation and maturation of CD11c CD8a+ dendritic cells ([1]; in absence of LXR (LXRαβKO)): abolished | DDA effect on Th1 differentiation ([2]; LXRαβKO mice): abrogated | DDA effect on Treg differentiation ([2]; LXRαβKO mice): abrogated | differentiation of Th0 into Th1 ([2]; WT mice, Th1 polarizing conditions, 96 h (FIG. 9)): increases | differentiation of Th0 into Treg ([2]; WT mice, Treg polarizing conditions, 96 h (FIG. 9)): decreases | Th2 differentiation ([2]; WT or LXRαβKO mice, Th2 polarizing conditions, 96 h (FIG. 10)): no impact

— patent US20230138400A1, “METHODS AND PHARMACEUTICAL COMPOSITIONS FOR REPROGRAMING IMMUNE ENVIRONMENT IN A SUBJECT IN NEED THEREOF” (INSERM (INSTITUT NATIONAL DE LA SANTE ET DE LA RECHERCHE …, priority 2016, published 2023)
